Key:
Experiment in all cases: B1 Post-emergence efficacy, glasshouse pot test
Type in all cases: in vivo
Details in all cases: post-emergence application, 1000 g/ha, evaluated after 13 days
[1] = system: Alopecurus myosuroides (ALOMY)
Method: (§1) B1 Post-Emergence Efficacy Seeds of a variety of test species are sown in standard soil in pots:—Solanum nigrum (SOLNI), Amaranthus retoflexus (AMARE), Setaria faberi (SETFA), Alopecurus myosuroides (ALOMY), Echinochloa crus-galli (ECHCG), Ipomoea hederacea (IPOHE), Lolium perenne (LOLPE). After 8 days cultivation (post-emergence) under controlled conditions in a glasshouse (at 24/16° C., day/night; 14 hours light; 65% humidity), the plants are sprayed with an aqueous spray solution derived from the formulation of the technical active ingredient in acetone/water (50:50) solution containing 0.5% Tween 20 (polyoxyethelyene sorbitan monolaurate, CAS RN 9005-64-5). Compounds are applied at 1000 g/ha. The test plants are then grown in a glasshouse under controlled conditions in a glasshouse (at 24/16° C., day/night; 14 hours light; 65% humidity) and watered twice daily. After 13 days, the test is evaluated for the percentage damage caused to the plant. The biological activities are assessed on a five point scale (5=80-100%; 4=60-79%; 3=40-59%; 2=20-39%; 1=0-19%). A blank value in the table is indicative that the compound was not tested on that species.

[2] = system: Amaranthus retoflexus (AMARE)
Method: as §1

[3] = system: Echinochloa crus-galli (ECHCG)
Method: as §1

[4] = system: Ipomoea hederacea (IPOHE)
Method: as §1

[5] = system: Setaria faberi (SETFA)
Method: as §1

[6] = system: Solanum nigrum (SOLNI)
Method: as §1

[7] = system: Lolium perenne (LOLPE)
Method: as §1

Compound	ALOMY: percentage damage caused to the plant (five point scale) [1]	AMARE: percentage damage caused to the plant (five point scale) [2]	ECHCG: percentage damage caused to the plant (five point scale) [3]	IPOHE: percentage damage caused to the plant (five point scale) [4]	SETFA: percentage damage caused to the plant (five point scale) [5]	SOLNI: percentage damage caused to the plant (five point scale) [6]	LOLPE: percentage damage caused to the plant (five point scale) [7]
CC1=NN(C)C(=O)C(c2c(Cl)ccc(Cl)c2OCc2ccccc2)C1=O (stereo not drawn) [Compound 1.001, 4-(2-benzyloxy-3,6-dichloro-phenyl)-2,6-dimethyl-pyridazine-3,5-dione]	4 (4=60-79%)	5 (5=80-100%)	5 (5=80-100%)	5 (5=80-100%)	5 (5=80-100%)	5 (5=80-100%)	
Cc1nn(C)c(=O)c(-c2c(C(F)(F)F)ccc(Cl)c2OCc2ccccc2)c1O [Compound 1.073]		3 (3=40-59%)	5 (5=80-100%)	5 (5=80-100%)	5 (5=80-100%)	5 (5=80-100%)	3 (3=40-59%)
Cn1nc(C(F)(F)F)c(O)c(-c2c(F)ccc(Cl)c2OCc2ccccc2)c1=O [Compound 1.074]		5 (5=80-100%)	5 (5=80-100%)	5 (5=80-100%)	5 (5=80-100%)	5 (5=80-100%)	5 (5=80-100%)
Cn1nc(C(F)(F)F)c(O)c(-c2c(Cl)ccc(Cl)c2OCc2ccccc2)c1=O [Compound 1.075]		4 (4=60-79%)	5 (5=80-100%)	5 (5=80-100%)	5 (5=80-100%)	5 (5=80-100%)	4 (4=60-79%)
Cc1ccc(Cl)c(OCc2ccccc2)c1-c1c(O)c(C)nn(C)c1=O [Compound 1.076]		2 (2=20-39%)	5 (5=80-100%)	5 (5=80-100%)	5 (5=80-100%)	5 (5=80-100%)	4 (4=60-79%)
C#CCn1nc(C)c(O)c(-c2c(F)ccc(Cl)c2OCc2ccccc2)c1=O [Compound 1.077]		5 (5=80-100%)	5 (5=80-100%)	5 (5=80-100%)	5 (5=80-100%)	5 (5=80-100%)	5 (5=80-100%)
Cn1nc(N)c(O)c(-c2c(F)ccc(Cl)c2OCc2ccccc2)c1=O [Compound 1.078]		3 (3=40-59%)	2 (2=20-39%)	4 (4=60-79%)	3 (3=40-59%)	5 (5=80-100%)	1 (1=0-19%)
Cn1nc(S(C)(=O)=O)c(O)c(-c2c(F)ccc(Cl)c2OCc2ccccc2)c1=O [Compound 1.079]		1 (1=0-19%)	1 (1=0-19%)	5 (5=80-100%)	1 (1=0-19%)	5 (5=80-100%)	1 (1=0-19%)
Cn1nc([S+](C)[O-])c(O)c(-c2c(F)ccc(Cl)c2OCc2ccccc2)c1=O (stereo not drawn) [Compound 1.080]		2 (2=20-39%)	1 (1=0-19%)	5 (5=80-100%)	1 (1=0-19%)	5 (5=80-100%)	2 (2=20-39%)
Cn1nc(N)c(O)c(-c2c(Cl)ccc(Cl)c2OCc2ccccc2)c1=O [Compound 1.081]		3 (3=40-59%)	2 (2=20-39%)	4 (4=60-79%)	4 (4=60-79%)	5 (5=80-100%)	2 (2=20-39%)
Cn1nc(S(C)(=O)=O)c(O)c(-c2c(Cl)ccc(Cl)c2OCc2ccccc2)c1=O [Compound 1.082]		1 (1=0-19%)	1 (1=0-19%)	3 (3=40-59%)	2 (2=20-39%)	5 (5=80-100%)	1 (1=0-19%)
Cn1nc([S+](C)[O-])c(O)c(-c2c(Cl)ccc(Cl)c2OCc2ccccc2)c1=O (stereo not drawn) [Compound 1.083]		1 (1=0-19%)	1 (1=0-19%)	5 (5=80-100%)	3 (3=40-59%)	5 (5=80-100%)	2 (2=20-39%)
CSc1nn(C)c(=O)c(-c2c(F)ccc(Cl)c2OCc2ccccc2)c1O [Compound 1.084]		3 (3=40-59%)	1 (1=0-19%)	5 (5=80-100%)	2 (2=20-39%)	5 (5=80-100%)	4 (4=60-79%)
CN(C)c1nn(C)c(=O)c(-c2c(F)ccc(Cl)c2OCc2ccccc2)c1O [Compound 1.085]		5 (5=80-100%)	4 (4=60-79%)	5 (5=80-100%)	3 (3=40-59%)	5 (5=80-100%)	5 (5=80-100%)
CSc1nn(C)c(=O)c(-c2c(Cl)ccc(Cl)c2OCc2ccccc2)c1O [Compound 1.086]		3 (3=40-59%)	2 (2=20-39%)	5 (5=80-100%)	4 (4=60-79%)	5 (5=80-100%)	4 (4=60-79%)
CN(C)c1nn(C)c(=O)c(-c2c(Cl)ccc(Cl)c2OCc2ccccc2)c1O [Compound 1.087]		5 (5=80-100%)	5 (5=80-100%)	5 (5=80-100%)	5 (5=80-100%)	5 (5=80-100%)	5 (5=80-100%)

— patent publication US9944608B2, “Herbicidal pyridazinone derivatives” (Syngenta Participations AG, priority 2014, dated 2018)
